# Assay results published in ChEMBL document CHEMBL5143645, “Synthesis of harmine-nitric oxide donor derivatives as potential antitumor agents” (Bioorg Med Chem Lett, 2022).
# pIC50: −log10 of the molar value. Calls of active or inactive are those of the source. No cut-off for these calls is given here.
# What was measured:
# HepG2 [1] = experiment: Induction of apoptosis in human HepG2 cells assessed as late apoptotic cells at 15 uM incubated for 24 hrs by PI and annexin V-FITC staining based flow cytometry (reference value: 0.36%); assay type: functional
# HepG2 [2] = experiment: Induction of apoptosis in human HepG2 cells assessed as late apoptotic cells at 1.5 uM incubated for 24 hrs by PI and annexin V-FITC staining based flow cytometry (reference value: 0.36%); assay type: functional
# HepG2 [3] = experiment: Induction of apoptosis in human HepG2 cells assessed as viable cells at 1.5 uM incubated for 24 hrs by PI and annexin V-FITC staining based flow cytometry (reference value: 93.97%); assay type: functional; settings: read-out: Activity
# HepG2 [4] = experiment: Induction of apoptosis in human HepG2 cells assessed as viable cells at 7.5 uM incubated for 24 hrs by PI and annexin V-FITC staining based flow cytometry (reference value: 93.97%); assay type: functional; settings: read-out: Activity
# [5] = Stability in Sprague-Dawley rat plasma assessed as parent compound remaining at 40 uM measured up to 36 hrs by HPLC analysis; assay type: ADME, cell-free
# A549 = experiment: Antiproliferative activity against human A549 cells assessed as reduction in cell viability incubated for 72 hrs by CCK-8 assay; assay type: functional, cell-based; settings: A549, 72 h
# HepG2 [6] = experiment: Induction of cell cycle arrest in human HepG2 cells assessed as accumulation of cells at S phase at 1.5 uM incubated for 24 hrs by PI staining based flow cytometry analysis (reference value: 42.03%); assay type: functional
# HepG2 [7] = experiment: Induction of apoptosis in human HepG2 cells assessed as early apoptotic cells at 15 uM incubated for 24 hrs by PI and annexin V-FITC staining based flow cytometry (reference value: 2.68%); assay type: functional
# HepG2 [8] = experiment: Induction of cell cycle arrest in human HepG2 cells assessed as accumulation of cells at G1 phase at 15 uM incubated for 24 hrs by PI staining based flow cytometry analysis (reference value: 42.39%); assay type: functional
# HepG2 [9] = experiment: Induction of NO release in human HepG2 cells assessed as increase in mean fluorescence intensity at 1.5 uM incubated for 72 hrs by DAF-FM DA dye based fluorescence microscopic analysis; assay type: functional, cell-based
# [10] = Acute toxicity in ICR mouse assessed as abnormality in drinking at less than 100 mg/kg, ip measured over 14 days; assay type: organism-based; settings: in vivo, 336 h, time 14 day
# [11] = Acute toxicity in ICR mouse assessed as abnormality in eating at less than 100 mg/kg, ip measured over 14 days; assay type: organism-based; settings: in vivo, 336 h, time 14 day
# HepG2 [12] = experiment: Induction of apoptosis in human HepG2 cells assessed as early apoptotic cells at 1.5 uM incubated for 24 hrs by PI and annexin V-FITC staining based flow cytometry (reference value: 2.68%); assay type: functional
# HepG2 [13] = experiment: Induction of apoptosis in human HepG2 cells assessed as viable cells at 15 uM incubated for 24 hrs by PI and annexin V-FITC staining based flow cytometry (reference value: 93.97%); assay type: functional; settings: read-out: Activity
# HepG2 [14] = experiment: Induction of cell cycle arrest in human HepG2 cells assessed as accumulation of cells at G1 phase at 7.5 uM incubated for 24 hrs by PI staining based flow cytometry analysis (reference value: 42.39%); assay type: functional
# HepG2 [15] = experiment: Induction of apoptosis in human HepG2 cells assessed as late apoptotic cells at 7.5 uM incubated for 24 hrs by PI and annexin V-FITC staining based flow cytometry (reference value: 0.36%); assay type: functional
# MCF7 = experiment: Antiproliferative activity against human MCF7 cells assessed as reduction in cell viability incubated for 72 hrs by CCK-8 assay; assay type: functional, cell-based; settings: MCF7, 72 h
# HepG2 [16] = experiment: Induction of cell cycle arrest in human HepG2 cells assessed as accumulation of cells at S phase at 7.5 uM incubated for 24 hrs by PI staining based flow cytometry analysis (reference value: 42.03%); assay type: functional
# HepG2 [17] = experiment: Induction of NO release in human HepG2 cells assessed as increase in mean fluorescence intensity at 1 uM incubated for 72 hrs by DAF-FM DA dye based fluorescence microscopic analysis; assay type: functional, cell-based
# [18] = Acute toxicity in ICR mouse assessed as death time at 50 mg/kg, ip measured over 14 days; assay type: organism-based; settings: in vivo, 336 h, time 14 day
# [19] = Stability of the compound in PBS at pH 7.4 assessed as parent compound remaining at 40 uM measured up to 36 hrs by HPLC analysis; assay type: physicochemical; settings: buffer, pH 7.4, 36 h
# HCT-116 = experiment: Antiproliferative activity against human HCT-116 cells assessed as reduction in cell viability incubated for 72 hrs by CCK-8 assay; assay type: functional, cell-based; settings: HCT-116, 72 h
# HepG2 [20] = experiment: Induction of cell cycle arrest in human HepG2 cells assessed as accumulation of cells at S phase at 15 uM incubated for 24 hrs by PI staining based flow cytometry analysis (reference value: 42.03%); assay type: functional
# HepG2 [21] = experiment: Induction of NO release in human HepG2 cells assessed as increase in mean fluorescence intensity at 1 to 9 uM incubated for 72 hrs by DAF-FM DA dye based fluorescence microscopic analysis; assay type: functional, cell-based; settings: dose 1-9 µM
# [22] = Acute toxicity in ICR mouse assessed as death time at 10 mg/kg, ip measured over 14 days; assay type: organism-based; settings: in vivo, 336 h, time 14 day
# [23] = Acute toxicity in ICR mouse assessed as change in activity at less than 100 mg/kg, ip measured over 14 days; assay type: organism-based; settings: in vivo, 336 h, time 14 day
# [24] = Cytotoxicity against human L02 cells assessed as reduction in cell viability incubated for 72 hrs by CCK-8 assay; assay type: toxicity, cell-based
# [25] = Apparent permeability across basolateral to apical side in human Caco-2 cells at 2 uM measured after 2 hrs by […] dye based microplate reader analysis; assay type: ADME, cell-based
# BGC-823 = experiment: Antiproliferative activity against human BGC-823 cells assessed as reduction in cell viability incubated for 72 hrs by CCK-8 assay; assay type: functional, cell-based; settings: BGC-823, 72 h
# HepG2 [26] = experiment: Induction of cell cycle arrest in human HepG2 cells assessed as accumulation of cells at G2/M phase at 15 uM incubated for 24 hrs by PI staining based flow cytometry analysis (reference value: 14.58%); assay type: functional
# HepG2 [27] = experiment: Induction of cell cycle arrest in human HepG2 cells assessed as accumulation of cells at G1 phase at 1.5 uM incubated for 24 hrs by PI staining based flow cytometry analysis (reference value: 42.39%); assay type: functional
# HepG2 [28] = experiment: Induction of apoptosis in human HepG2 cells assessed as necrotic cells at 1.5 uM incubated for 24 hrs by PI and annexin V-FITC staining based flow cytometry (reference value: 0.36%); assay type: functional
# HepG2 [29] = experiment: Induction of apoptosis in human HepG2 cells assessed as necrotic cells at 15 uM incubated for 24 hrs by PI and annexin V-FITC staining based flow cytometry (reference value: 0.36%); assay type: functional
# HepG2 [30] = experiment: Induction of apoptosis in human HepG2 cells assessed as necrotic cells at 7.5 uM incubated for 24 hrs by PI and annexin V-FITC staining based flow cytometry (reference value: 0.36%); assay type: functional
# [31] = Apparent permeability across apical to basolateral side in human Caco-2 cells at 2 uM measured after 2 hrs by […] dye based microplate reader analysis; assay type: ADME, cell-based
# [32] = Acute toxicity in ip dosed ICR mouse assessed as maximum tolerated dose measured over 14 days; assay type: organism-based; settings: in vivo, time 14 day
# [33] = Acute toxicity in ICR mouse assessed as change in body weight at less than 100 mg/kg, ip measured over 14 days; assay type: organism-based; settings: in vivo, 336 h, time 14 day
# HepG2 [34] = experiment: Induction of cell cycle arrest in human HepG2 cells assessed as accumulation of cells at G2/M phase at 7.5 uM incubated for 24 hrs by PI staining based flow cytometry analysis (reference value: 14.58%); assay type: functional
# HepG2 [35] = experiment: Antiproliferative activity against human HepG2 cells assessed as reduction in cell viability incubated for 72 hrs by CCK-8 assay; assay type: functional, cell-based; settings: HepG2, 72 h
# HepG2 [36] = experiment: Induction of cell cycle arrest in human HepG2 cells assessed as accumulation of cells at G2/M phase at 1.5 uM incubated for 24 hrs by PI staining based flow cytometry analysis (reference value: 14.58%); assay type: functional
# HepG2 [37] = experiment: Induction of apoptosis in human HepG2 cells assessed as early apoptotic cells at 7.5 uM incubated for 24 hrs by PI and annexin V-FITC staining based flow cytometry (reference value: 2.68%); assay type: functional
smiles,measurement,setting,value
Br.Cc1c2c(cc[n+]1Cc1ccccc1)c1ccc(OCC(=O)OCCCCOc3no[n+]([O-])c3S(=O)(=O)c3ccccc3)cc1n2CCCc1ccccc1,Activity,HepG2 [1],14.73%
same,Activity,HepG2 [2],4.28%
same,viability at 1.5 µM,HepG2 [3],81.2%
same,viability at 7.5 µM,HepG2 [4],77.2%
same,Stability,[5],Stable
same,pIC50,A549,5.46
same,Activity,HepG2 [6],40.75%
same,Activity,HepG2 [7],20.86%
same,Activity,HepG2 [8],33.22%
same,Activity,HepG2 [9],Active
same,Activity,[10],Non-Toxic
same,Activity,[11],Non-Toxic
same,Activity,HepG2 [12],10.11%
same,viability at 15 µM,HepG2 [13],58.3%
same,Activity,HepG2 [14],33.77%
same,Activity,HepG2 [15],5.56%
same,pIC50,MCF7,5.55
same,Activity,HepG2 [16],46.2%
same,Activity,HepG2 [17],Active
same,Activity,[18],Non-Toxic
same,Stability,[19],Stable
same,pIC50,HCT-116,5.11
same,Activity,HepG2 [20],36.56%
same,Activity,HepG2 [21],Active
same,Activity,[22],Non-Toxic
same,Activity,[23],Non-Toxic
same,IC50 at 72 h,[24],10 µM
same,"Papp B→A at 2 h, 2 µM",[25],< 0.05 ×10⁻⁶ cm/s
same,pIC50,BGC-823,5.06
same,Activity,HepG2 [26],30.22%
same,Activity,HepG2 [27],40.68%
same,Activity,HepG2 [28],4.44%
same,Activity,HepG2 [29],6.08%
same,Activity,HepG2 [30],4.45%
same,"Papp A→B at 2 h, 2 µM",[31],< 0.05 ×10⁻⁶ cm/s
same,MTD at 336 h,[32],100 mg/kg
same,Activity,[33],Non-Toxic
same,Activity,HepG2 [34],20.03%
same,pIC50,HepG2 [35],5.75
same,Activity,HepG2 [36],18.57%
same,Activity,HepG2 [37],12.78%
Cc1c2c(cc[n+]1Cc1ccccc1)c1ccc(OCC(=O)O)cc1n2CCCc1ccccc1,pIC50,A549,4.28
same,pIC50,MCF7,4.58
same,pIC50,HCT-116,4.40
same,IC50 at 72 h,[24],90.3 µM
same,pIC50,BGC-823,4.43
same,pIC50,HepG2 [35],3.95
O=S(=O)(c1ccccc1)c1c(OCCCO)no[n+]1[O-],pIC50,A549,5.10
same,pIC50,MCF7,5.13
same,pIC50,HCT-116,5.04
same,IC50 at 72 h,[24],21.7 µM
same,pIC50,BGC-823,4.93
same,pIC50,HepG2 [35],5.18
COc1ccc2c(c1)[nH]c1c(C)nccc12 [HARMINE],pIC50,A549,5.28
same,pIC50,MCF7,4.82
same,pIC50,HCT-116,5.16
same,Activity,[22],Non-Toxic
same,IC50 at 72 h,[24],25.1 µM
same,pIC50,BGC-823,4.81
same,pIC50,HepG2 [35],4.77
O=S(=O)(c1ccccc1)c1c(OCCCCO)no[n+]1[O-],pIC50,A549,5.46
same,pIC50,MCF7,5.31
same,pIC50,HCT-116,5.21
same,IC50 at 72 h,[24],17.9 µM
same,pIC50,BGC-823,5.50
same,pIC50,HepG2 [35],5.30
COc1cccc2c1C(=O)c1c(O)c3c(c(O)c1C2=O)C[C@@](O)(C(=O)CO)C[C@@H]3O[C@H]1C[C@H](N)[C@H](O)[C@H](C)O1 [DOXORUBICIN],pIC50,A549,5.98
same,pIC50,MCF7,6.42
same,pIC50,HCT-116,6.06
same,pIC50,BGC-823,6.18
same,pIC50,HepG2 [35],6.37
